# Read-outs that look alike come from different tables or passages of the source.
# Tests used:
# P-glycoprotein = P-glycoprotein (Homo sapiens, UniProt P08183); conditions: 6 well Biocoat inserts; without verapamil
# Protocol: (§1) Solutions of drug for screening are prepared with Hank's Balanced Salts solution (HBSS) buffered to pH7.4 with HEPES. Up to 1% DMSO may be added to aid solubilisation. These drug solutions are added to either the apical (1.5 ml) or the basolateral (3.0 ml) chambers of a 6 well system, and HBSS at pH7.4 is added to the opposite chamber. 0.5 ml samples are taken at regular time intervals from the receiver chamber and the volume replaced with fresh pre-warmed HBSS at pH7.4. A donor sample is taken initially and at the final time point. Samples are analysed using appropriate methods. The volumes are modified accordingly for other plate formats (e.g. 400 μL apical volume, 1 mL basolateral volume for a 24 well plate).
# [1] = test system: cell monolayers on BIOCOAT "3 day" system or polycarbonate filters; conditions: cited from earlier work
# Caco-2 cell monolayer = experiment: in vitro
# Protocol: (§2) This was carried out with the hydrophilic markers, ^14C-mannitol and Lucifer Yellow.
# as §1
# (§3) The results are expressed as cumulative amount or percentage transported versus time. An absorption apparent permeability coefficient, Papp, can been calculated where: [formula]
# (§4) where dQ/dt is the permeability rate (over the linear portion of the curve), C0 is the initial concentration in the donor chamber and A (cm^2) is the surface area of the filter insert supporting the cell monolayer.
# [2] = biological target: T1, apical di-peptide transporter (Homo sapiens, UniProt P46059); experiment: Transport of 14C-Gly-sar across Caco-2 monolayers, A-B and B-A; format: in vitro ADME; conditions: pH 6 and 7.4
# T1 construct: show functional expression of the dipeptide carrier and p-glycoprotein; endogenous in cells; host or cells: Caco-2 (ECACC 86010202)
# T1 sequence (P46059 1-708): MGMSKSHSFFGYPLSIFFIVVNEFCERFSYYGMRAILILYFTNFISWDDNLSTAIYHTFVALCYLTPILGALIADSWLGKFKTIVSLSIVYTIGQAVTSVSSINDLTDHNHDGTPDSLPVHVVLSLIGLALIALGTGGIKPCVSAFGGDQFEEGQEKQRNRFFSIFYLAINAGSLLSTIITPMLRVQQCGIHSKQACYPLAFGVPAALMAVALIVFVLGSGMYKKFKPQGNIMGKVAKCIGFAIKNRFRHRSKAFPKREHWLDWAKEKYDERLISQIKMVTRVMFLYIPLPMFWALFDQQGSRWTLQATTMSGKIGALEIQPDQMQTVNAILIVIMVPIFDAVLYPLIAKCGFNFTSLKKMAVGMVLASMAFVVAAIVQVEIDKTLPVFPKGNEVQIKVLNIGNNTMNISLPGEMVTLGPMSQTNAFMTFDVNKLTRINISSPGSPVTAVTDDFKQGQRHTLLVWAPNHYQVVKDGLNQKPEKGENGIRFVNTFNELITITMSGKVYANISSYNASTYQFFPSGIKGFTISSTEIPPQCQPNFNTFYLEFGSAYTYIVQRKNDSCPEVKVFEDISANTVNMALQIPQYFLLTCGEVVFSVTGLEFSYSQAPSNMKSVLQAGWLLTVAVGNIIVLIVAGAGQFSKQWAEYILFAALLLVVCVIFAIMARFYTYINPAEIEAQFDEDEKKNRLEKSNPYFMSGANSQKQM
# Protocol: Samples are analysed using appropriate methods.
# in vitro = conditions: human, Caco-2, pH 7.4
# Protocol: as §2, §1, §3, §4
# [3] = Polycarbonate (1), Artursson et al 1996, 14C-mannitol
# Chain of P-glycoprotein (P08183 whole entry): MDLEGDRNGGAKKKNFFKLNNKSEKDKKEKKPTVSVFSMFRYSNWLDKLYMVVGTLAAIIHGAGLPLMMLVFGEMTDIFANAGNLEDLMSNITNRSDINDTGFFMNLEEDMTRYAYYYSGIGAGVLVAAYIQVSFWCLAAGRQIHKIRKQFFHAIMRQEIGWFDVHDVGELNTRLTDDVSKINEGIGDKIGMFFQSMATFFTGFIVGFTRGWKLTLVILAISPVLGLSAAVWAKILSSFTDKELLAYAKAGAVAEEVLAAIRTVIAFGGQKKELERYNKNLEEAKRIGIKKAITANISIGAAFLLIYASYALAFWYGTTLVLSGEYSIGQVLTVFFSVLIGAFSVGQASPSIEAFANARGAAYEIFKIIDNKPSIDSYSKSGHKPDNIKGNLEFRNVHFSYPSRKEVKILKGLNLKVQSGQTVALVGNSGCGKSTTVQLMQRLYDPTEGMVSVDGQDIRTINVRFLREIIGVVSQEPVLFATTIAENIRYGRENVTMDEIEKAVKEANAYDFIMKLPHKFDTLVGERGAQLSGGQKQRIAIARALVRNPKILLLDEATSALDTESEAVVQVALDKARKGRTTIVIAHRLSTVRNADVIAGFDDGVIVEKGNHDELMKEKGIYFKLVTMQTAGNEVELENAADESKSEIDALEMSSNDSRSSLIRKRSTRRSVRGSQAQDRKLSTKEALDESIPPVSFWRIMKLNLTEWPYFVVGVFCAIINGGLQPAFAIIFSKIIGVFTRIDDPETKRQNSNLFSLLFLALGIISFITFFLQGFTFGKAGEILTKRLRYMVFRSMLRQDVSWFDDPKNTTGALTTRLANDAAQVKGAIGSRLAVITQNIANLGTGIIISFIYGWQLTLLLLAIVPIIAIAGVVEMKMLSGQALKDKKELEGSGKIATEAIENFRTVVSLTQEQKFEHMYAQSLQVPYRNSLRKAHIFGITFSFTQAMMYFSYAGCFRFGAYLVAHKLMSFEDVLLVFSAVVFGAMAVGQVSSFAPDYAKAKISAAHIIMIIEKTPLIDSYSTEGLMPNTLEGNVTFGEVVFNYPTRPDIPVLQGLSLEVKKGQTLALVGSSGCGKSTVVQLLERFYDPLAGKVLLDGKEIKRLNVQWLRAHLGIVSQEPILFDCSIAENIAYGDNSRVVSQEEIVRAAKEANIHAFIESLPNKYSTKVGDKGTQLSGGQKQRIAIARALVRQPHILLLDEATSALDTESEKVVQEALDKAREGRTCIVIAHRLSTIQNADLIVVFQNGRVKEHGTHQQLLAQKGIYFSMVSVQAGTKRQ
molecule,measurement,setting,value
CC[C@]1(O)C[C@@H]2CN(CCc3c([nH]c4ccccc34)[C@@](C(=O)OC)(c3cc4c(cc3OC)N(C)[C@H]3[C@@](O)(C(=O)OC)[C@H](OC(C)=O)[C@]5(CC)C=CCN6CC[C@]43[C@@H]65)C2)C1 [^3H-vinblastine],transport B to A versus A to B,P-glycoprotein,significantly greater B to A transport
OC[C@@H](O)[C@@H](O)[C@H](O)[C@H](O)CO [^3H-Mannitol],Papp,[1],0.76 cm.s^−1 × 10^6
Lucifer Yellow,% Transported/hour,Caco-2 cell monolayer; Caco-2,0.13%
same,Average Lucifer Yellow Transported,Caco-2 cell monolayer; Caco-2,0.13%
same,% Transported/hour,"[1]; Polycarbonate (4), Hidalgo et al 1989, Lucifer Yellow",0.11%
CN(CC(=O)O)[14C](=O)CN [^14C-Gly-sar],transport A-B versus B-A,[2]; 24 well PET inserts,increased transport in the A-B direction
same,transport A-B versus B-A,[2]; collagen coated 6 well Biocoat filters,increased transport in the A-B direction
"OC[C@@H](O)[C@@H](O)[C@H](O)[C@H](O)CO [^14C-Mannitol, ^14C-mannitol]",Papp at 60 min,in vitro,~0.4 ×10⁻⁶ cm/s
same,Papp,Caco-2 cell monolayer; Caco-2,0.4 cm.s^−1 × 10^6
same,% Transported/hour,"Caco-2 cell monolayer; human, Caco-2, 1 h, pH 7.4",<0.5%
same,Average Mannitol Transported,"Caco-2 cell monolayer; human, Caco-2, 60 min, pH 7.4",0.36-0.40%
same,Papp,"[1]; BIOCOAT ""3 day"" system, 14C-mannitol",<4.0 cm.s^−1 × 10^6
same,% Transported/hour,[1]; [3],0.05%
same,Papp,[1]; [3],0.1-1.0 cm.s^−1 × 10^6
same,% Transported/hour,"[1]; Polycarbonate (3), Taub 1997, 14C-mannitol",1.5%

# From patent publication US6511798B1, “Methods for the preparation of cell monolayers” (Zeneca Limited, priority 1998, dated 2003)
